From PubChem BioAssay (NCI)
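Test compounds were applied to cells in 96-well plates for 48 hours at 5 doses. At the TGI there is no net growth.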

Experiments:
Experiment in all cases: NCI anticancer screen, dose series, 48 h
[1] = tested on: SR leukemia
[2] = tested on: COLO 205 colon
[3] = tested on: A498 renal
[4] = tested on: MDA-MB-435
[5] = tested on: BT-549 breast
[6] = tested on: OVCAR-3 ovarian
[7] = tested on: NCI-H522 lung
[8] = tested on: HOP-92 NSCLC
[9] = tested on: PC-3 prostate
[10] = tested on: MALME-3M melanoma
[11] = tested on: OVCAR-4 ovarian
[12] = tested on: HCT-15 colon
[13] = tested on: M14 melanoma
[14] = tested on: EKVX NSCLC
[15] = tested on: UACC-62 melanoma
[16] = tested on: OVCAR-5 ovarian
[17] = tested on: DU-145 prostate
[18] = tested on: SNB-19 CNS
[19] = tested on: U251 CNS
[20] = tested on: CCRF-CEM leukemia
[21] = tested on: HS 578T breast
[22] = tested on: ACHN renal
[23] = tested on: SW-620 colon
[24] = tested on: SF-295 CNS
[25] = tested on: CAKI-1 renal
[26] = tested on: NCI-H226 lung
[27] = tested on: LOX IMVI melanoma
[28] = tested on: SK-OV-3 ovarian
[29] = tested on: NCI-H460 lung
[30] = tested on: HCC-2998 colon
[31] = tested on: NCI-H23 lung
[32] = tested on: MOLT-4 leukemia
[33] = tested on: SF-539 CNS
[34] = tested on: UACC-257 melanoma
[35] = tested on: T-47D breast
[36] = tested on: SN12C renal
[37] = tested on: SK-MEL-5 melanoma
[38] = tested on: HCT-116 colon
[39] = tested on: A549 NSCLC
[40] = tested on: 786-0 renal
[41] = tested on: KM12 colon
[42] = tested on: NCI/ADR-RES ovarian
[43] = tested on: RPMI-8226 leukemia
[44] = tested on: SF-268 CNS
[45] = tested on: MDA-MB-231 breast
[46] = tested on: OVCAR-8 ovarian
[47] = tested on: IGROV1 ovarian
[48] = tested on: HOP-62 NSCLC
[49] = tested on: MCF7 breast
[50] = tested on: UO-31 renal
[51] = tested on: TK-10 renal
[52] = tested on: SK-MEL-28 melanoma
[53] = tested on: HT29 colon
[54] = tested on: K-562 leukemia
[55] = tested on: MDA-N
[56] = tested on: HL-60(TB) leukemia
[57] = tested on: SK-MEL-2 melanoma
[58] = tested on: SNB-75 CNS
[59] = tested on: RXF 393 renal
[60] = tested on: HOP-18 NSCLC
[61] = tested on: XF 498 CNS
[62] = tested on: DMS 273 small cell lung
[63] = tested on: LXFL 529 NSCLC
[64] = tested on: KM20L2 colon
[65] = tested on: SNB-78 CNS
[66] = tested on: M19-MEL melanoma
[67] = tested on: DMS 114 small cell lung

CC1(O)CC(C(F)(F)F)(C(F)(F)F)OC1=O (stereo not given) was tested, and the TGI [1] was greater than 10 µM, the TGI [2] was greater than 10 µM and the TGI [3] was greater than 10 µM. For the same compound, the TGI [4] was greater than 10 µM, the TGI [5] was greater than 10 µM and the TGI [6] was greater than 10 µM. For the same compound, the TGI [7] was greater than 10 µM, the TGI [8] was greater than 10 µM and the TGI [9] was greater than 10 µM. For the same compound, the TGI [10] was greater than 10 µM, the TGI [11] was greater than 10 µM and the TGI [12] was greater than 10 µM. The TGI [13] was greater than 10 µM, the TGI [14] was greater than 10 µM and the TGI [15] was greater than 10 µM. It also gave a TGI [16] greater than 10 µM, a TGI [17] greater than 10 µM and a TGI [18] greater than 10 µM. It also gave a TGI [19] greater than 10 µM, a TGI [20] greater than 10 µM and a TGI [21] greater than 10 µM. For the same compound, the TGI [22] was greater than 10 µM, the TGI [23] was greater than 10 µM and the TGI [24] was greater than 10 µM. For the same compound, the TGI [25] was greater than 10 µM, the TGI [26] was greater than 10 µM and the TGI [27] was greater than 10 µM. It also gave a TGI [28] greater than 10 µM, a TGI [29] greater than 10 µM and a TGI [30] greater than 10 µM. For the same compound, the TGI [31] was greater than 10 µM, the TGI [32] was greater than 10 µM and the TGI [33] was greater than 10 µM. For the same compound, the TGI [34] was greater than 10 µM, the TGI [35] was greater than 10 µM and the TGI [36] was greater than 10 µM. For the same compound, the TGI [37] was greater than 10 µM, the TGI [38] was greater than 10 µM and the TGI [39] was greater than 10 µM. For the same compound, the TGI [40] was greater than 10 µM, the TGI [41] was greater than 10 µM and the TGI [42] was greater than 10 µM. It also gave a TGI [43] greater than 10 µM, a TGI [44] greater than 10 µM and a TGI [45] greater than 10 µM. The TGI [46] was greater than 10 µM, the TGI [47] was greater than 10 µM and the TGI [48] was greater than 10 µM. It also gave a TGI [49] greater than 10 µM, a TGI [50] greater than 10 µM and a TGI [51] greater than 10 µM. For the same compound, the TGI [52] was greater than 10 µM, the TGI [53] was greater than 10 µM and the TGI [54] was greater than 10 µM. The TGI [55] was greater than 10 µM.

COCOC1/C=C/CCCCC2=C(C)C=C(C1)O2 (stereo not given) was tested, and the TGI [1] was greater than 100 µM, the TGI [2] was greater than 100 µM and the TGI [3] was greater than 100 µM. For the same compound, the TGI [4] was greater than 100 µM, the TGI [5] was greater than 100 µM and the TGI [6] was greater than 100 µM. For the same compound, the TGI [7] was greater than 100 µM, the TGI [8] was greater than 100 µM and the TGI [9] was greater than 100 µM. The TGI [10] was greater than 100 µM, the TGI [11] was greater than 100 µM and the TGI [56] was greater than 100 µM. For the same compound, the TGI [12] was greater than 100 µM, the TGI [13] was greater than 100 µM and the TGI [14] was greater than 100 µM. For the same compound, the TGI [15] was greater than 100 µM, the TGI [16] was greater than 100 µM and the TGI [17] was greater than 100 µM. It also gave a TGI [57] greater than 100 µM, a TGI [18] greater than 100 µM and a TGI [19] greater than 100 µM. The TGI [20] was greater than 100 µM, the TGI [58] was greater than 100 µM and the TGI [21] was greater than 100 µM. The TGI [22] was greater than 100 µM, the TGI [23] was greater than 100 µM and the TGI [24] was greater than 100 µM. For the same compound, the TGI [25] was greater than 100 µM, the TGI [26] was greater than 100 µM and the TGI [27] was greater than 100 µM. For the same compound, the TGI [28] was greater than 100 µM, the TGI [29] was greater than 100 µM and the TGI [30] was greater than 100 µM. For the same compound, the TGI [31] was greater than 100 µM, the TGI [32] was greater than 100 µM and the TGI [33] was greater than 100 µM. The TGI [34] was greater than 100 µM, the TGI [35] was greater than 100 µM and the TGI [36] was greater than 100 µM. For the same compound, the TGI [37] was greater than 100 µM, the TGI [38] was greater than 100 µM and the TGI [39] was greater than 100 µM. The TGI [40] was greater than 100 µM, the TGI [41] was greater than 100 µM and the TGI [42] was greater than 100 µM. The TGI [43] was greater than 100 µM, the TGI [44] was greater than 100 µM and the TGI [45] was greater than 100 µM. It also gave a TGI [46] greater than 100 µM, a TGI [47] greater than 100 µM and a TGI [59] greater than 100 µM. It also gave a TGI [48] greater than 100 µM, a TGI [49] greater than 100 µM and a TGI [50] greater than 100 µM. The TGI [51] was greater than 100 µM, the TGI [52] was greater than 100 µM and the TGI [53] was greater than 100 µM. The TGI [54] was greater than 100 µM and the TGI [55] was greater than 100 µM.

Cc1cc2c(cc1C)[n+](=O)c(C(=O)CC(=O)C(=O)Nc1c(C(C)C)cccc1C(C)C)c(C)n2[O-] gave a TGI [1] greater than 100 µM, a TGI [2] greater than 100 µM and a TGI [3] greater than 100 µM. For the same compound, the TGI [6] was greater than 100 µM, the TGI [7] was greater than 100 µM and the TGI [8] was greater than 100 µM. The TGI [10] was greater than 100 µM, the TGI [11] was greater than 100 µM and the TGI [60] was greater than 100 µM. The TGI [12] was greater than 100 µM, the TGI [13] was greater than 100 µM and the TGI [14] was greater than 100 µM. It also gave a TGI [15] greater than 100 µM, a TGI [16] greater than 100 µM and a TGI [61] greater than 100 µM. It also gave a TGI [57] greater than 100 µM, a TGI [18] greater than 100 µM and a TGI [19] greater than 100 µM. For the same compound, the TGI [20] was greater than 100 µM, the TGI [58] was greater than 100 µM and the TGI [62] was greater than 100 µM. For the same compound, the TGI [22] was greater than 100 µM, the TGI [23] was greater than 100 µM and the TGI [24] was greater than 100 µM. It also gave a TGI [63] greater than 100 µM, a TGI [25] greater than 100 µM and a TGI [26] greater than 100 µM. It also gave a TGI [27] greater than 100 µM, a TGI [28] greater than 100 µM and a TGI [64] greater than 100 µM. The TGI [29] was greater than 100 µM, the TGI [30] was greater than 100 µM and the TGI [31] was greater than 100 µM. The TGI [32] was greater than 100 µM, the TGI [33] was greater than 100 µM and the TGI [34] was greater than 100 µM. For the same compound, the TGI [36] was greater than 100 µM, the TGI [65] was greater than 100 µM and the TGI [37] was greater than 100 µM. It also gave a TGI [38] greater than 100 µM, a TGI [39] greater than 100 µM and a TGI [40] greater than 100 µM. The TGI [41] was greater than 100 µM, the TGI [66] was greater than 100 µM and the TGI [43] was greater than 100 µM. The TGI [44] was greater than 100 µM, the TGI [46] was greater than 100 µM and the TGI [47] was greater than 100 µM. For the same compound, the TGI [67] was greater than 100 µM, the TGI [59] was greater than 100 µM and the TGI [48] was greater than 100 µM. It also gave a TGI [50] greater than 100 µM, a TGI [51] greater than 100 µM and a TGI [52] greater than 100 µM. It also gave a TGI [53] greater than 100 µM and a TGI [54] greater than 100 µM.
